Data: patent US9510595B2, “Pesticidal mixtures” (Syngenta Participations AG, priority 2012, dated 2016)

Assays:
[1] = test system: Heliothis virescens (Tobacco Budworm); assay: Heliothis virescens egg/larval mortality on artificial diet, 24-well plate; assay type: in vivo; conditions: for 2-7 Observe control %: 2-7 alone; for DMET observed control %: DMET alone; for 1-1 observed control %: 1-1 alone; for SPAT observed control %: SPAT alone
Procedure: Heliothis virescens (Tobacco Budworm)
Eggs (0-24 h old) are placed in 24-well microtiter plate on artificial diet and treated with test solutions (DMSO) by pipetting. After an incubation period of 4 days, samples are checked for larval mortality.
(§1) When a compound applied alone gave no control at a particular rate, it is assumed that lower rates of that compound alone also give no control. DMET=deltamethrin, SPAT=spirotetramat, 1-1 is compound 1 in Table 1, 2-7 is compound 7 in Table 2.

[2] = test system: Tetranychus urticae (Two-Spotted Spider Mite); assay: Tetranychus urticae mixed population mortality on sprayed bean leaf discs; assay type: in vivo; conditions: for 2-7 observed control %: 2-7 alone; for SPAT observed control %: SPAT alone
Description: Tetranychus urticae (Two-Spotted Spider Mite)
Bean leaf discs on agar in 24-well microtiter plates are sprayed with test solutions (DMSO). After drying, the leaf discs are infested with mite populations of mixed ages. 8 days later, discs are checked for mixed population mortality.
as §1

N#Cc1cc(C2=NCC(c3cc(Cl)c(Cl)c(Cl)c3)(C(F)(F)F)C2)ccc1-n1cncn1 (racemic) [2-7]
2-7 Observe control % ([1]; 0.025 ppm): 0%
2-7 Observe control % ([1]; 0.05 ppm): 10%
2-7 Observe control % ([1]; 0.1 ppm): 55%
2-7 Observe control % ([1]; 0.2 ppm): 80%
2-7 Observe control % ([1]; 0.4 ppm): 90%
2-7 observed control % ([2]; 0.187 ppm): 0%
2-7 observed control % ([2]; 0.375 ppm): 0%
2-7 observed control % ([2]; 0.75 ppm): 25%
2-7 observed control % ([2]; 1.5 ppm): 75%
2-7 observed control % ([2]; 3.0 ppm): 80%

CC1(C)[C@H](C(=O)O[C@H](C#N)c2cccc(Oc3ccccc3)c2)[C@@H]1C=C(Br)Br [DMET, deltamethrin]
DMET observed control % ([1]; 0.0125 ppm): 0%
DMET observed control % ([1]; 0.025 ppm): 0%
DMET observed control % ([1]; 0.05 ppm): 0%
DMET observed control % ([1]; 0.1 ppm): 0%
DMET observed control % ([1]; 0.2 ppm): 0%
DMET observed control % ([1]; 0.4 ppm): 0%
DMET observed control % ([1]; 0.8 ppm): 0%

N#Cc1cc(C2=NOC(c3cc(Cl)cc(Cl)c3)(C(F)(F)F)C2)ccc1-n1cncn1 (racemic) [1-1]
1-1 observed control % ([1]; 0.78 ppm): 0%
1-1 observed control % ([1]; 1.56 ppm): 0%
1-1 observed control % ([1]; 3.125 ppm): 45%
1-1 observed control % ([1]; 6.25 ppm): 85%
1-1 observed control % ([1]; 12.5 ppm): 85%
1-1 observed control % ([1]; 25 ppm): 90%

CCOC(=O)OC1=C(c2cc(C)ccc2C)C(=O)N[C@]12CC[C@@H](OC)CC2 [SPAT, spirotetramat]
SPAT observed control % ([1]; 1.56 ppm): 0%
SPAT observed control % ([1]; 3.12 ppm): 0%
SPAT observed control % ([1]; 3.125 ppm): 0%
SPAT observed control % ([1]; 6.25 ppm): 0%
SPAT observed control % ([1]; 12.5 ppm): 0%
SPAT observed control % ([1]; 25 ppm): 0%
SPAT observed control % ([1]; 50 ppm): 0%
SPAT observed control % ([1]; 100 ppm): 0%
SPAT observed control % ([1]; 200 ppm): 60%
SPAT observed control % ([2]; 1.56 ppm): 0%
SPAT observed control % ([2]; 3.125 ppm): 0%
SPAT observed control % ([2]; 12.5 ppm): 65%
SPAT observed control % ([2]; 25 ppm): 80%
SPAT observed control % ([2]; 50 ppm): 85%
SPAT observed control % ([2]; 100 ppm): 85%
SPAT observed control % ([2]; 200 ppm): 85%
